Laboratory results reported in US9926297B2, “Bicyclic AZA compounds as muscarinic M1 receptor and/or M4 receptor agonists” (Heptares Therapeutics Limited, priority 2014, dated 2018).

Columns and labels:
[1] = target: T1, human muscarinic M1 receptor (Homo sapiens, UniProt P11229); assay: Alphascreen Surefire phospho-ERK1/2 functional assay, M1; type: cell-based; conditions: for EC50: read-out: pEC50 M1 (converted); for Emax: CHO, read-out: % Emax cf. ACh, M1, CHO cells stably expressing human M1; for Emax / % Emax cf. ACh, M1: relative to ACh
T1 sequence (P11229 1-460): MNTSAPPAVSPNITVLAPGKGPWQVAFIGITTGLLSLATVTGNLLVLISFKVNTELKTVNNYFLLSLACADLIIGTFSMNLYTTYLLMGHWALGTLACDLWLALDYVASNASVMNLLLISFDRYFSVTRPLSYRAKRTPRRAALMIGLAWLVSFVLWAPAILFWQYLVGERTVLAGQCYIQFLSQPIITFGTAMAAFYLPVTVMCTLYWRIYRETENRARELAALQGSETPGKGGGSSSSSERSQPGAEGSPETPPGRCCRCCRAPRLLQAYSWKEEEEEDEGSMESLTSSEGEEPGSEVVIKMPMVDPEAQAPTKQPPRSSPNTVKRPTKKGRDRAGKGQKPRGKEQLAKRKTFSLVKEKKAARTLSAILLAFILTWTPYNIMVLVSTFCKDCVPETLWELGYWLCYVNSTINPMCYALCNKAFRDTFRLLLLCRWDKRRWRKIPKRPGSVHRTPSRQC

[2] = target: T2, human muscarinic M4 receptor (Homo sapiens, UniProt P08173); assay: Alphascreen Surefire phospho-ERK1/2 functional assay, M4; type: cell-based; conditions: for EC50 / % Emax cf. ACh, M4: CHO cells stably expressing human M4; for EC50: phospho-ERK1/2, * = variable results, read-out: pEC50 M4 (converted); for Emax: CHO, read-out: % Emax cf. ACh, M4, CHO cells stably expressing human M4; for Emax / % Emax cf. ACh, M4: relative to ACh
T2 construct: expressed in transfected cells
T2 sequence (P08173 1-479): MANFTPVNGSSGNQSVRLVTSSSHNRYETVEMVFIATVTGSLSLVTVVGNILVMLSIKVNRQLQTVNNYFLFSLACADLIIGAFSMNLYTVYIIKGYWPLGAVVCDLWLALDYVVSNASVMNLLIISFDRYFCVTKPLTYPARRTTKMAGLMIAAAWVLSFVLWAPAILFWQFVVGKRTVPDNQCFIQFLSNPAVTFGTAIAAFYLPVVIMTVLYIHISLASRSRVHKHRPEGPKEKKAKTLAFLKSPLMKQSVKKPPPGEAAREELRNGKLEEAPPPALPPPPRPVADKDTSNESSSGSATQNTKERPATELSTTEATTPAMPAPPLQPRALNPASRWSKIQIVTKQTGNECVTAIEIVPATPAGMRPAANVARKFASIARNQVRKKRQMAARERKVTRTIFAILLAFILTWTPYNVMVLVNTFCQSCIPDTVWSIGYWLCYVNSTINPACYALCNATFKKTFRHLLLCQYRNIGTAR

[3] = target: T3, human muscarinic M2 receptor (Homo sapiens, UniProt P08172); assay: Alphascreen Surefire phospho-ERK1/2 functional assay, M2; conditions: for Emax: CHO, read-out: % Emax cf. ACh, M2, CHO cells stably expressing human M2; for Emax / % Emax cf. ACh, M2: relative to ACh
T3 sequence (P08172 1-466): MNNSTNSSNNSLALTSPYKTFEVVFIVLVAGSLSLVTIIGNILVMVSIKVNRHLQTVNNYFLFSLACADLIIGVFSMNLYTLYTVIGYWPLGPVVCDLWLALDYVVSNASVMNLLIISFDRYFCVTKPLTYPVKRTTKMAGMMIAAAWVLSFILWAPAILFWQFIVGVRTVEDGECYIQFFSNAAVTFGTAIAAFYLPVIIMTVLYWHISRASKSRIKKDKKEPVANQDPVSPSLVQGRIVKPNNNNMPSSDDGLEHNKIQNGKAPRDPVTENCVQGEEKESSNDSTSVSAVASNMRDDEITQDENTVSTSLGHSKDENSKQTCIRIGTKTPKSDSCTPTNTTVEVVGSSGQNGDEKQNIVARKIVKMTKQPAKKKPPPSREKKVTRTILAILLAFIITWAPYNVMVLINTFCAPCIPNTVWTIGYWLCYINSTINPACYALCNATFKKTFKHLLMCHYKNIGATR

[4] = target: human muscarinic M3 receptor (Homo sapiens, UniProt P20309); assay: Alphascreen Surefire phospho-ERK1/2 functional assay, M3; conditions: for Emax: CHO, read-out: % Emax cf. ACh, M3, CHO cells stably expressing human M3; for Emax / % Emax cf. ACh, M3: relative to ACh; for EC50: pEC50 M3, CHO cells stably expressing human M3
[5] = CHO cells stably expressing human M1, phospho-ERK1/2, * = variable results
[6] = phospho-ERK1/2, * = variable results
[7] = CHO cells stably expressing human M1
[8] = CHO cells stably expressing human M2
[9] = CHO cells stably expressing human M3

Chain of human muscarinic M3 receptor (P20309 whole entry): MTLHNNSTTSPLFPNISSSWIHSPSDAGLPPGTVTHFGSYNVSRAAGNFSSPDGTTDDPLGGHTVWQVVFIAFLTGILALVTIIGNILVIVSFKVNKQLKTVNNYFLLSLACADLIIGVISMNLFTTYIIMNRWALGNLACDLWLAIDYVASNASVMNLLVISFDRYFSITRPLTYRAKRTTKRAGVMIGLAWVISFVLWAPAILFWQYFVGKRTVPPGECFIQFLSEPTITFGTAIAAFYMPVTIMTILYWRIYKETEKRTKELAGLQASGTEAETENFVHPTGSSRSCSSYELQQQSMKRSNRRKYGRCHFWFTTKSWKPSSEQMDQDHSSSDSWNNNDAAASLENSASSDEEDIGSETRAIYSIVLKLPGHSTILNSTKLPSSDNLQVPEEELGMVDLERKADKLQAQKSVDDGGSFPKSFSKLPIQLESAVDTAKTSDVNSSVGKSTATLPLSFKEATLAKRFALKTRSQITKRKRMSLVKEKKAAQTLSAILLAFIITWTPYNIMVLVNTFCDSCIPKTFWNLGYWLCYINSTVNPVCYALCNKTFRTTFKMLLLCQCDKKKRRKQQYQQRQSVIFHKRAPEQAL

SMILES	EC50 [1, 5] [nM]	Emax [1] [%]	EC50 [2] [nM]	Emax [2] [%]	EC50 [3] [nM]	Emax [3] [%]	Emax [4] [%]	EC50 [4, 6] [nM]	% Emax cf. ACh, M1 [1, 7] [%]	% Emax cf. ACh, M4 [2] [%]	% Emax cf. ACh, M2 [3, 8] [%]	% Emax cf. ACh, M3 [4, 9] [%]	pEC50 M2 ([3]; CHO cells stably expressing human M2, phospho-ERK1/2, * = variable results)	pEC50 M3 ([4]; CHO cells stably expressing human M3, phospho-ERK1/2, * = variable results)	pEC50 M1 [1, 5]
CCOC(=O)N1CCC2(CC(N3CCC([C@@H]4CCCN4C(=O)NC4(C)COC4)CC3)C2)C1 (single isomer, unassigned) [2-36 Isomer 2]	158	89	6.31	113	> 20000	3	5	> 20000							
CCOC(=O)N1CCC2(CC(N3CCC([C@@H]4CCCN4C(=O)N4CCC(F)(F)C4)CC3)C2)C1 (single isomer, unassigned) [2-37 Isomer 2]	3160	106	20	83	> 20000	33	58	> 20000							
CCOC(=O)N1CCC2(CC(N3CCC([C@@H]4CCCN4C(=O)NC4CC(F)(F)C4)CC3)C2)C1 (single isomer, unassigned) [2-38 Isomer 2]	158	110	5.01	115	> 20000	1	2	> 20000							
CCOC(=O)N1CCC2(CC(N3CCC([C@@H]4CCCN4C(=O)N4CC(F)(F)C4)CC3)C2)C1 (single isomer, unassigned) [2-39 Isomer 2]	2510	41	15.8	76	> 20000	1	1	> 20000							
COC(=O)N1CCC2(CC(N3CCC([C@@H]4CCCN4C(=O)NCC(F)(F)F)CC3)C2)C1 (single isomer, unassigned) [2-40 Isomer 2]	794	78	31.6	90	> 20000	2	1	> 20000							
CCOC(=O)N1CCC2(CC(N3CCC([C@@H]4CCCN4C(=O)OC4CCC4)CC3)C2)C1 (single isomer, unassigned) [2-43 Isomer 2]	3160	19	50.1	47	> 20000	4	5	> 20000							
CCOC(=O)N1CCC2(CC(N3CCC([C@@H]4CCCN4C(=O)NCCF)CC3)C2)C1 (single isomer, unassigned) [2-44 Isomer 2]	316	71	5.01	100	> 20000	4	8	> 20000							
CCOC(=O)N1CCC2(CC(N3CCC([C@@H]4CCCN4C(=O)NCC(F)F)CC3)C2)C1 (single isomer, unassigned) [2-45 Isomer 2]	251	67	5.01	111	> 20000	5	5	> 20000							
CCOC(=O)N1CCC2(CC(N3CCC([C@@H]4CCCN4C(=O)COC)CC3)C2)C1 (single isomer, unassigned) [2-46 Isomer 2]	1580	32	15.8	85	> 20000	5	8	> 20000							
CCOC(=O)N1CCC2(CC(N3CCC([C@@H]4CCCN4C(=O)OCC(F)(F)F)CC3)C2)C1 (single isomer, unassigned) [2-48 Isomer 2]	316	34	10	81	> 20000	3	5	> 20000							
CCOC(=O)N1CCC2(CC(N3CCC([C@@H]4CCCN4C(=O)OCCOC)CC3)C2)C1 (single isomer, unassigned) [2-50 Isomer 2]	251	63	25.1	73	> 20000	4	2	> 20000							
CCOC(=O)N1CCC2(CC(N3CCC([C@@H]4CCCN4C(=O)OCCN(C)C)CC3)C2)C1 (single isomer, unassigned) [2-51 Isomer 2]	> 20000	237	63.1	53	> 20000	1	3	> 20000							
CCOC(=O)N1CCC2(CC(N3CCC([C@@H]4CCCN4C(=O)CO)CC3)C2)C1 (single isomer, unassigned) [2-52 Isomer 2]	631	49	20	85	> 20000	4	4	> 20000							

Next, values leading:

EC50 [1, 5] [nM]	Emax [1] [%]	EC50 [2] [nM]	Emax [2] [%]	EC50 [3] [nM]	Emax [3] [%]	Emax [4] [%]	EC50 [4, 6] [nM]	% Emax cf. ACh, M1 [1, 7] [%]	% Emax cf. ACh, M4 [2] [%]	% Emax cf. ACh, M2 [3, 8] [%]	% Emax cf. ACh, M3 [4, 9] [%]	pEC50 M2 ([3]; CHO cells stably expressing human M2, phospho-ERK1/2, * = variable results)	pEC50 M3 ([4]; CHO cells stably expressing human M3, phospho-ERK1/2, * = variable results)	pEC50 M1 [1, 5]	SMILES
79.4	109	7.94	126	> 20000	10	21	6310								CCOC(=O)N1CCC2(CC(N3CCC([C@@H]4CCCN4C(=O)CC(F)(F)F)CC3)C2)C1 (single isomer, unassigned) [2-53 Isomer 2]
> 20000		15.8		> 20000			> 20000	1	45	50	0				CCOC(=O)N1CCC2(CC(N3CCC([C@@H]4CCCN4C(=O)NCc4ccccn4)CC3)C2)C1 (single isomer, unassigned) [2-54 Isomer 1]
50.1		1.26						86	134	8	23	< 4.7	< 4.7		CCOC(=O)N1CCC2(CC(N3CCC([C@@H]4CCCN4C(=O)NCc4ccccn4)CC3)C2)C1 (single isomer, unassigned) [2-54 Isomer 2]
		25.1		> 20000	22	12	> 20000	7	52					< 4.7	CCOC(=O)N1CCC2(CC(N3CCC([C@@H]4CCCN4C(=O)N(C)CC(F)(F)F)CC3)C2)C1 (single isomer, unassigned) [2-55 Isomer 2]
631	96	5.01	134	> 20000	8	0	> 20000								CCOC(=O)N1CCC2(CC(N3CCC([C@@H]4CCCN4C(=O)NC4COC4)CC3)C2)C1 (single isomer, unassigned) [2-56 Isomer 2]
> 20000	16	31.6	117	> 20000	25	4	> 20000								CCOC(=O)N1CCC2(CC(N3CCC([C@@H]4CCCN4C(=O)N(C)C4COC4)CC3)C2)C1 (single isomer, unassigned) [2-57 Isomer 2]
